In one data set the test system is A549 cells. Description: Cellular cytotoxicity (Celltiter 96 Aqueous One Solution, MTS). It is filed as cell-based. Conditions: 61 h incubation period as printed, MTS absorbance 490 nm. The text has this:
The cytotoxic or cytostatic properties of compounds of formula (1) and corresponding etoposide compounds can be assessed for example, by use, for example, of this assay. The Celltiter 96® Aqueous One Solution Cell Proliferation Assay kit (Promega Corporation, USA) which is a colorimetric method for determining the number of viable cells in proliferation or cytotoxicity assays was used. In this assay the MTS tetrazolium compound (Owen's Reagent) is bioreduced by viable cells into a coloured formazan product which is soluble in tissue culture medium and can be measured by recording absorbance at 490 nm with a 96 well plate reader. A549 cells were seeded in Eagles Minimum Essential Medium supplemented with 10% foetal calf serum and non-essential amino acids at 10^3 cell per well on a 96 well plate and allowed to attach for 24 h. Compounds were dissolved in DMSO and diluted with cell culture medium before addition. […] The MTS reagent was added to each well, left for 4 h, then the absorbance measured at 490 nm with a 96 well plate reader.

A further data set has as its target T1, human P450 reductase (Homo sapiens, UniProt P16435).
T1 construct: purchased Gentest or Cypex P244 (Gentest) or Cyp004 (Cypex)
T1 sequence (P16435 1-677): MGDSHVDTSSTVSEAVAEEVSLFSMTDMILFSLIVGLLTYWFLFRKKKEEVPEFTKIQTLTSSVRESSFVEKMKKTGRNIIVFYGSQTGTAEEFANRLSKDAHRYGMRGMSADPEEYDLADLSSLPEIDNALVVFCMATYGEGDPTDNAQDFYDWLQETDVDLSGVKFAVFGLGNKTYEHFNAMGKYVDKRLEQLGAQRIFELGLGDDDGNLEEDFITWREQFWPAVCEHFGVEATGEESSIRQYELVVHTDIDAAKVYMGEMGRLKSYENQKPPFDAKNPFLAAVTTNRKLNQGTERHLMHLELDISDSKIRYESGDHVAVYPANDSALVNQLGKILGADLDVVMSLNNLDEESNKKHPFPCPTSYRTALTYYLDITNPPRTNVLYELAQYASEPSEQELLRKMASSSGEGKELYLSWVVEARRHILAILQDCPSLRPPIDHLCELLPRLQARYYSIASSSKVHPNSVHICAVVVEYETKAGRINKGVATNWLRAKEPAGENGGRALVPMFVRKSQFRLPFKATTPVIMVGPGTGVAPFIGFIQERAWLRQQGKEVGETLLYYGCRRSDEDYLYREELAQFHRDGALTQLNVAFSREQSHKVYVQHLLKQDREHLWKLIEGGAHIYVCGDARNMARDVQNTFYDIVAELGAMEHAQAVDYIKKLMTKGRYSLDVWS
Put plainly: Drug release by human cytochrome P450 reductase. The data set is classed as biochemical. Conditions: NADPH, pH 7.4, 37° C. On the procedure:
Cytochrome p450 reductase is widely expressed in human tumours as well as in a range of normal tissues and is one of a number of enzymes that can catalyse bioreduction. […] For experiments under nitrogen the mixture was degassed with nitrogen for 20 minutes prior to compound addition and overgassed with nitrogen during the incubation.

The nature of data set [1]: Metabolism in tumour homogenates. The data set is classed as in vitro ADME. The note with it: 5 μmol dm^−3 prodrug, NADPH, pH 7.4, 37° C. The procedure: Useful bioreductive prodrugs can be shown to release the active drug selectively under conditions of low oxygen in the presence of tumour homogenate in this assay. Freshly-excised CaNT tumours (approximately 0.5 to 1 g) were homogenised in 15 ml of ice-cold 50 mmol din^−3 potassium phosphate buffer at pH 7.4.

The conditions of data set [2]: 5 μmol dm^−3 prodrug, NADPH, pH 7.4, 37° C.
Procedure: Freshly-excised mouse liver (approximately 1 g) was homogenised in 15 ml of ice-cold 50 mmol dm^−3 potassium phosphate buffer at pH 7.4. The homogenates were centrifuged at 1000 RPM for 10 min and the supernatants stored on ice. The metabolism of 5 µmol dm^−3 prodrug in air was performed with 0.5 ml liver homogenate (˜2 mg of protein by Bradford assay) with 100 µmol dm^−3 NADPH in 50 mmol dm^−3 potassium phosphate buffer at pH 7.4 incubated at 37° C. Samples (60 µl) were taken at regular intervals and added to an equivalent volume of acetonitrile, then mixed and centrifuged at 14, 300 RPM for 2 min prior to product analysis by HPLC.

What is called IC50 is the concentration that gives 50% inhibition.

Consider “9-[(4,6-O-Ethylidene-β-D-glucopyranosyl)oxy]-5,8,8a,9-tetrahydro-5-(4-(1-(5-nitrothien-2-yl)ethoxy)-3,5-dimethoxyphenyl)furo[3′,4′:6,7]naphtha[2,3-d]-1,3-dioxol-6(5aH)-one [Example 1]”, for which, in the data set on A549 cells, the IC50 is more than 20 µM. For the same compound, the drug production entry at human P450 reductase (under air) is given as “no drug production could be detected”. Further, the results for the “rate of etoposide production” value (at human P450 reductase (under anoxia (nitrogen)); in data set [1] (under nitrogen)) were 0.83 nmol min^−1 mg protein^−1 and 17 μmol/min/mg protein, respectively. Also, in data set [1] (under air), the etoposide production result was “no etoposide production was detected”.

Turning to “9-[(4,6-O-Ethylidene-β-D-glucopyranosyl)oxy]-5,8,8a,9-tetrahydro-5-(4-(5-nitrothien-2-yl)methoxy)-3,5-dimethoxyphenyl)furo[3′,4′:6,7]naphtha[2,3-d]-1,3-dioxol-6(5aH)-one [Example 2]”, in data set [2] (Anoxic (nitrogen)), the “Rate of drug release (pmol/min/mg protein) Anoxic” value turned out to be 388 pmol/min/mg protein. In addition, the “Rate of drug release (pmol/min/mg protein) Oxic” value in data set [2] (Oxic (air)) is listed as 7 pmol/min/mg protein.

`COc1cc([C@@H]2c3cc4c(cc3[C@@H](O[C@@H]3O[C@@H]5CO[C@@H](C)O[C@H]5[C@H](O)[C@H]3O)[C@H]3COC(=O)[C@H]23)OCO4)cc(OC)c1O` [etoposide, reference compound] yielded a half-inhibitory concentration (IC50) in the data set with A549 cells (Homo sapiens) of 7.5 µM.

These data come from patent publication US20090202571A1, “Bioreductively-activated prodrugs” (HOPNIC LABORATORY CO., LTD., priority 2004, published 2009).
